Our source for the ED50, IC50 and Relative potency values is ChEMBL document CHEMBL1123826, “Nitrogen bridgehead compounds. 66. Bronchodilator nitrogen bridgehead compounds with a pyrimidinone moiety” (J Med Chem, 1987).

What all share (assay type): functional
Assay [1] is filed under the species Cavia porcellus. Kind of assay: Bronchodilator activity against histamine-induced spasm in guinea pig. Conditions: read-out: ID50 (the source's name).
The species named for assay [2] is Cavia porcellus. Put plainly: Bronchodilator activity against serotonin-induced spasm in guinea pig. Conditions: read-out: ID50 (the source's name).
Assay [3] is filed under the species Cavia porcellus. Kind of assay: Bronchodilator activity against acetylcholine-induced spasm in guinea pig. Conditions: read-out: ID50 (the source's name).
For assay [4], the species on record is Homo sapiens. Kind of assay: Compound was tested for Bronchodilator activity against isolated human bronchus contracted by carbachol.
Assay [5] is described as follows: Relative potency is ratio of IC50 of theophylline / IC50 was determined.
The mark [6] stands for this setting: Homo sapiens, Bronchus, read-out: IC50.

Turning to `O=c1c2c(nc3n1CCC3)CCCCC2`, the values for the ED50 in assay [1], in assay [2] and in assay [3] were 27.6 µmol/kg, 33 µmol/kg and 38.5 µmol/kg, respectively.
For `O=c1nc2n(c3c1CCCC3)CCC2`, in that order: more than 100 µmol/kg, 107 µmol/kg and more than 100 µmol/kg.
For `O=c1nc2n(c3c1CCC3)CCC2`, in that order: more than 100 µmol/kg, more than 100 µmol/kg and more than 100 µmol/kg.
For the compound `O=c1c2cc3c(cc2nc2n1CCCCC2)OCO3`, the ED50 is more than 32 µmol/kg in assay [1], 13.1 µmol/kg in assay [2] and 22.7 µmol/kg in assay [3].
For `O=c1c2ccccc2nc2n1CCC2`, in that order: 16.9 µmol/kg, 21.2 µmol/kg and 37.7 µmol/kg.
For `Cc1cccc2nc3c(c(=O)n12)CCC3`, the ED50 was 7.2 µmol/kg in assay [1], 4.3 µmol/kg in assay [2] and 29.3 µmol/kg in assay [3].
For `O=c1c2c(nc3n1CCCC3)CCC2`, in that order: 25.7 µmol/kg, 24.1 µmol/kg and 23.7 µmol/kg.
Regarding `O=c1c2c(nc3n1CCCCCC3)CCCC2`, the ED50 was 27.1 µmol/kg in assay [1], 44.6 µmol/kg in assay [2] and 58.5 µmol/kg in assay [3].
For `O=c1nc2n(c3c1CCCC3)CCCCC2`, in that order: more than 32 µmol/kg, 55.1 µmol/kg and more than 32 µmol/kg.
For `O=c1c2ccccc2nc2n1CCCCCC2`, in that order: 61.8 µmol/kg, more than 100 µmol/kg and 61.8 µmol/kg.
For `O=c1c2c(nc3n1CCCC3)CCCC2`, in that order: 22 µmol/kg, 33.3 µmol/kg and 44.5 µmol/kg.
Turning to `O=C(O)c1ccc2nc3n(c(=O)c2c1)CCCC3`, the ED50 in assay [1], in assay [2] and in assay [3] was more than 100 µmol/kg each time.
As to `CC1CCc2nc3c(c(=O)n2C1)CCCC3` (configuration not stated), the ED50 in assay [1] was found to be 23.6 µmol/kg; in assay [2], 38.1 µmol/kg; in assay [3] it was 28.9 µmol/kg.
For `O=C(O)c1ccc2nc3n(c(=O)c2c1)CCCCC3`, in that order: more than 100 µmol/kg, more than 100 µmol/kg and more than 100 µmol/kg.
Take `CC1CCCc2nc3c(c(=O)n21)CCCC3` (configuration not stated): the ED50 in assay [1] turned out to be 24.7 µmol/kg; in assay [2] it was 14 µmol/kg; in assay [3], 20.3 µmol/kg.
For `S=c1c2c(nc3n1CCCCC3)CCC2`, in that order: more than 320 µmol/kg, more than 320 µmol/kg and more than 320 µmol/kg.
Regarding `COC(=O)c1ccc2nc3n(c(=O)c2c1)CCC3`, the ED50 in assay [1] amounted to 27 µmol/kg; in assay [2], 11.7 µmol/kg; in assay [3], 44.1 µmol/kg.
Regarding `O=c1c2ccccc2nc2n1CCCC2`, the ED50 stood at 11.1 µmol/kg in assay [1], 15.2 µmol/kg in assay [2] and 31.1 µmol/kg in assay [3].
For `Cc1ccn2c(=O)c3c(nc2c1)CCC3`, in that order: 15.7 µmol/kg, 22.6 µmol/kg and 29.6 µmol/kg.
For `COC(=O)c1ccc2nc3n(c(=O)c2c1)CCCC3`, in that order: 16.8 µmol/kg, 12.3 µmol/kg and more than 32 µmol/kg.
For the compound `CC1CCc2nc3ccccc3c(=O)n21` (configuration not stated), the ED50 in assay [1] stood at 10.4 µmol/kg; in assay [2] it was 12.2 µmol/kg; in assay [3], 48.2 µmol/kg.
For `Cc1ccc2nc3c(c(=O)n2c1)CCC3`, in that order: 29.2 µmol/kg, 14.4 µmol/kg and 29.1 µmol/kg.
For `CC1CCc2nc3c(c(=O)n2C1)CCC3` (configuration not stated), in that order: 7.2 µmol/kg, 39.6 µmol/kg and 17.6 µmol/kg.
For `Cc1cccn2c(=O)c3c(nc12)CCC3`, the values for the ED50 in assay [1], in assay [2] and in assay [3] were 10.2 µmol/kg, 11.2 µmol/kg and 21.6 µmol/kg, respectively. Moreover, in assay [4] (setting [6]), the IC50 stood at 97.7 µM. For the same compound, the Relative potency in assay [5] is 1.54.
`Cc1ccn2c(=O)c3c(nc2c1)CCCC3`: the ED50 in assay [1] was 20.4 µmol/kg; in assay [2], 21.9 µmol/kg; in assay [3], 37.7 µmol/kg.
Consider `CC1CCCc2nc3ccccc3c(=O)n21` (configuration not stated), for which the ED50 in assay [1] is 27 µmol/kg; in assay [2], 30.2 µmol/kg; in assay [3] it was more than 100 µmol/kg.
For the compound `O=C(O)c1ccc2c(=O)n3c(nc2c1)CCC3`, the ED50 in assay [1], in assay [2] and in assay [3] was more than 100 µmol/kg throughout.
On to `O=c1c2c(nc3n1CCCCC3)CCCCC2`, for which the ED50 in assay [1] was found to be 33.8 µmol/kg; in assay [2] it was 30.8 µmol/kg; in assay [3], 7.2 µmol/kg.
For `Cc1cccn2c(=O)c3c(nc12)CCCCCC3`, in that order: 23.8 µmol/kg, 14.3 µmol/kg and 42.6 µmol/kg.
With `CCc1c(C)nc2ccccn2c1=O.Cl`, the ED50 in assay [1] was 8.6 µmol/kg; in assay [2] it was 12 µmol/kg; in assay [3], 29.4 µmol/kg. The same compound gave an IC50 in assay [4] of 127 uM l-1. Further, in assay [5], the Relative potency is 1.19.
With `CC1CCCn2c1nc1c(c2=O)CCCC1` (configuration not stated), the results for the ED50 in assay [1], in assay [2] and in assay [3] were 19.8 µmol/kg, 36.2 µmol/kg and 47.1 µmol/kg, respectively.
For the compound `O=c1c2c(nc3ccccn13)CCCCCC2`, the figures for the ED50 in assay [1], in assay [2] and in assay [3] were 32.7 µmol/kg, 49 µmol/kg and 53.3 µmol/kg, respectively.
Regarding `S=c1c2c(nc3n1CCCCC3)CCCC2`, the ED50 in assay [1], in assay [2] and in assay [3] was more than 320 µmol/kg each time.
As to `O=c1c2c(nc3n1CCC3)CCCC2`, the ED50 in assay [1] is 24.1 µmol/kg; in assay [2], 29.8 µmol/kg; in assay [3], 51.1 µmol/kg.
Consider `CCOC(=O)c1c[n+](C)c2n(c1=O)C(C)CCC2` (configuration not stated) [RIMAZOLIUM METILSULFATE], for which the ED50 worked out at 8 µmol/kg in assay [1], 14 µmol/kg in assay [2] and 31 µmol/kg in assay [3].
As to `O=C(O)c1ccc2c(=O)n3c(nc2c1)CCCCC3`, the ED50 in assay [1], in assay [2] and in assay [3] was more than 100 µmol/kg in each case.
Consider `O=c1c2c(nc3n1CCCCC3)CCCCCC2`, for which the ED50 in assay [1] was 33 µmol/kg; in assay [2] it was more than 100 µmol/kg; in assay [3], 2.26 µmol/kg.
Consider `Cl.O=c1c2c(nc3ccccn13)CCC2`, for which the ED50 in assay [1] came to 10.5 µmol/kg; in assay [2], 17.6 µmol/kg; in assay [3] it was 32.4 µmol/kg. The compound further displayed an IC50 in assay [4] of 879 uM l-1. Further, the Relative potency in assay [5] amounted to 0.17.
`Cc1ccc2c(=O)n3c(nc2c1)CCCCC3`: the ED50 in assay [1] was 25.6 µmol/kg; in assay [2], 39.4 µmol/kg; in assay [3], 76 µmol/kg.
For `CC1CCn2c(nc3c(c2=O)CCCC3)C1` (configuration not stated), in that order: 25.7 µmol/kg, 39.3 µmol/kg and 29.9 µmol/kg.
Consider `CCc1c(C)nc2cc(C)ccn2c1=O`, for which the ED50 in assay [1] is 20.9 µmol/kg; in assay [2], 29.7 µmol/kg; in assay [3], 36.7 µmol/kg.
For `Cc1ccc2nc3c(c(=O)n2c1)CCCC3`, in that order: 15.6 µmol/kg, 20.4 µmol/kg and 32 µmol/kg.
Regarding `Cc1ccc2nc3n(c(=O)c2c1)CCCCC3`, the ED50 amounted to 25.3 µmol/kg in assay [1], 44.7 µmol/kg in assay [2] and 16 µmol/kg in assay [3].
With `CCOC(=O)c1ccc2c(=O)n3c(nc2c1)CCC3`, the ED50 in assay [1] is 14.4 µmol/kg; in assay [2] it was more than 32 µmol/kg; in assay [3], more than 32 µmol/kg.
In the case of `O=c1c2c(nc3n1CCCC3)CCCCC2`, the results for the ED50 in assay [1], in assay [2] and in assay [3] were 15.2 µmol/kg, 12.7 µmol/kg and 11.8 µmol/kg, respectively.
Consider `O=c1c2c(nc3n1CCC3)CCCCCC2`, for which the ED50 stood at 164 µmol/kg in assay [1], 57.1 µmol/kg in assay [2] and 100 µmol/kg in assay [3].
Regarding `O=c1c2c(nc3n1CCC3)CCC2`, the ED50 in assay [1] was 46.1 µmol/kg; in assay [2], 82.5 µmol/kg; in assay [3], more than 100 µmol/kg.
For `Cc1ccc2nc3n(c(=O)c2c1)CCC3`, in that order: 29.8 µmol/kg, 11.3 µmol/kg and 29 µmol/kg.
Regarding `CCOC(=O)c1ccc2c(=O)n3c(nc2c1)CCCC3`, the ED50 in assay [1] is 15.1 µmol/kg; in assay [2] it was more than 32 µmol/kg; in assay [3], more than 32 µmol/kg.
As for `Cl.O=c1c2c(nc3ccccn13)CCCC2`, the ED50 in assay [1] amounted to 6.1 µmol/kg; in assay [2], 16.7 µmol/kg; in assay [3], 18.2 µmol/kg. Further, the IC50 in assay [4] is recorded as 127 uM l-1. The Relative potency in assay [5] was found to be 1.18.
As to `O=C(O)c1ccc2nc3n(c(=O)c2c1)CCC3`, the ED50 in assay [1] is 215 µmol/kg; in assay [2] it was more than 100 µmol/kg; in assay [3], more than 100 µmol/kg.
Regarding `CCc1c(C)nc2cccc(C)n2c1=O`, the figures for the ED50 in assay [1], in assay [2] and in assay [3] were 10.2 µmol/kg, 9.6 µmol/kg and 25.6 µmol/kg, respectively. For the same compound, the IC50 in assay [4] (setting [6]) worked out at 71.8 µM. In addition, the Relative potency in assay [5] worked out at 2.1.
On to `CC1CCn2c1nc1ccccc1c2=O` (configuration not stated), for which the ED50 is 27.3 µmol/kg in assay [1], 29.4 µmol/kg in assay [2] and 45.8 µmol/kg in assay [3].
In the case of `O=C(O)c1ccc2c(=O)n3c(nc2c1)CCCC3`, the ED50 in assay [1], in assay [2] and in assay [3] was more than 100 µmol/kg throughout.
Consider `CCc1c(C)nc2ccc(C)cn2c1=O`, for which the ED50 was 12.4 µmol/kg in assay [1], 16.6 µmol/kg in assay [2] and 24 µmol/kg in assay [3].
As to `CC1CCCn2c1nc1c(c2=O)CCC1` (configuration not stated), the ED50 in assay [1] amounted to 11.5 µmol/kg; in assay [2], 7.7 µmol/kg; in assay [3], 12.8 µmol/kg.
For `Cc1cccc2nc3c(c(=O)n12)CCCC3`, in that order: 9.7 µmol/kg, 6.1 µmol/kg and 10 µmol/kg.
In the case of `CC1CCCc2nc3c(c(=O)n21)CCC3` (configuration not stated), the ED50 in assay [1] amounted to 11.7 µmol/kg; in assay [2], 13.8 µmol/kg; in assay [3] it was 18.2 µmol/kg.
In the case of `O=c1c2c(nc3n1CCCCC3)CCCC2`, the ED50 in assay [1] and in assay [2] was 3 µmol/kg throughout.
For the compound `CCc1c(C)nc2c(C)cccn2c1=O`, the ED50 worked out at 5.1 µmol/kg in assay [1], 12.3 µmol/kg in assay [2] and 36.4 µmol/kg in assay [3].
For `CC1CCc2nc3c(c(=O)n21)CCCC3` (configuration not stated), in that order: 19.7 µmol/kg, 46.8 µmol/kg and 74.6 µmol/kg.
For `COc1ccccc1.Cn1c(=O)c2nc[nH]c2n(C)c1=O`, the ED50 in assay [1] came to 10 µmol/kg; in assay [2], 10 µmol/kg; in assay [3], 22 µmol/kg. In assay [4], this compound displayed an IC50 of 151 uM l-1. In assay [5], the Relative potency is 1.
